By IC50 is commonly meant the concentration needed to halve the response being measured. By GI50 is commonly meant the concentration giving 50% growth inhibition. The term inhibition denotes the drop in the measured response relative to a control, in per cent.

The text below walks through data of ChEMBL document CHEMBL5260825, “Chemical Constituents of Bryophytes: Structures and Biological Activity” (J Nat Prod, 2018).

Values after ≈ are worked out from the molar mass of the structure shown. Values joined by “and” are separate entries in the source; they are usually repeats but may differ in a detail not shown here. Equal entries are not always repeated.

The subject of one series is Phytophthora infestans. The series is described as follows: Antifungal activity against Phytophthora infestans assessed as inhibition of microbial growth by microtiter plate based analysis. In kind it is functional, organism-based.
In a further series the test system is Zymoseptoria tritici. Put plainly: Antifungal activity against Zymoseptoria tritici assessed as inhibition of microbial growth by microtiter plate based analysis. In kind it is functional, organism-based.
In the next series the test system is Pyricularia oryzae. Put plainly: Antifungal activity against Pyricularia oryzae assessed as inhibition of microbial growth. In kind it is functional, organism-based.
In a further series the test system is Cladosporium cucumerinum. Put plainly: Antifungal activity against Cladosporium cucumerinum assessed as inhibition of microbial growth by microtiter plate based analysis. In kind it is functional, organism-based.
For another series, the system named is Botrytis cinerea. Put plainly: Antifungal activity against Botrytis cinerea assessed as inhibition of microbial growth by microtiter plate based analysis. In kind it is functional, organism-based.
Series [1] concerns Candida albicans. Put plainly: Antifungal activity against Candida albican ATCC10231 assessed as inhibition of fungal growth by microdilution method. In kind it is functional. In general terms: Broth dilution looks for growth in wells or tubes with falling amounts of substance.
Series [2] concerns Candida albicans. The series is described as follows: Antifungal activity against Candida albican ATCC10231 assessed as inhibition of fungal growth by measuring minimal inhibitory quantity by microdilution method. It counts as functional.
The target in series [3] is T1, Polyunsaturated fatty acid 5-lipoxygenase (Homo sapiens) (UniProt P09917).
T1 sequence (whole entry): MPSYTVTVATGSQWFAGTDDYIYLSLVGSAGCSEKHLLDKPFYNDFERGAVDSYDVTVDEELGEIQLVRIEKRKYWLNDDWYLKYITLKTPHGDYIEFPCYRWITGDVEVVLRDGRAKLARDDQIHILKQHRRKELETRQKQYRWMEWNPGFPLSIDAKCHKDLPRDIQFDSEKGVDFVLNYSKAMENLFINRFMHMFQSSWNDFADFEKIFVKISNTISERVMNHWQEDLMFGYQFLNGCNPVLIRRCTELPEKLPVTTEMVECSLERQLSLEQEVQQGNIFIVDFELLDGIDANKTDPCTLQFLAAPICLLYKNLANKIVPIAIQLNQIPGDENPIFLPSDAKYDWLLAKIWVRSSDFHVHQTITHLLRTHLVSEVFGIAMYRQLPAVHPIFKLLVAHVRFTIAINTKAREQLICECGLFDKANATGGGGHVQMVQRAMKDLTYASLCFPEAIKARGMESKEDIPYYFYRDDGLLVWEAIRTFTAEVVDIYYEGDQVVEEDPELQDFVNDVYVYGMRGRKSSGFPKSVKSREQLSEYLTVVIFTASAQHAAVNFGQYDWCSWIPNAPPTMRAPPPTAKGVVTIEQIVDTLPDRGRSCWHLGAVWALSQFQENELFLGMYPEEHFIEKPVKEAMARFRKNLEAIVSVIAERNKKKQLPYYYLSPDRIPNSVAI
The series is described as follows: Inhibition of ALOX5 (unknown origin) assessed as reduction in calmodulin level.

For another series, the species on record is Homo sapiens. Put plainly: Antagonist activity at vasopressin (unknown origin). As to conditions: filed as antagonist.
In series [4] the test system is Candida albicans. The series is described as follows: Antifungal activity against Candida albican assessed as reduction in fluconazole MIC by microdilution method. In kind it is functional.
Another series addresses Cyclooxygenase (Homo sapiens, UniProt P35354+P23219). Put plainly: Inhibition of COX (unknown origin). In kind it is protein assay.
The species entered for a further series is Rattus norvegicus. The series is described as follows: Inhibition of iron-induced lipid peroxidation in rat liver microsomes in presence of NADPH. In kind it is functional, Microsome. (In general: Liver microsomes are vesicles of endoplasmic reticulum, rich in cytochrome P450 enzymes.)
Series [5] deals with Trypanosoma brucei brucei. Put plainly: Antitrypanosomal activity against bloodstream Trypanosoma brucei brucei assessed as parasite growth inhibition measured after 72 hrs by alamar blue assay. In kind it is functional, organism-based. On the technique in general: Alamar Blue is a resazurin reagent that responds to reducing activity.
The next series relates to RAW264.7. Put plainly: Inhibition of LPS-induced NO production in mouse RAW264.7 cells incubated for 24 hrs by Griess reagent based assay. It counts as functional, cell-based. As to conditions: RAW264.7, 24 h.
Another series relates to MCF7. The series is described as follows: Antiproliferative activity against human MCF7 cells assessed as cell growth inhibition. In kind it is functional, cell-based.
In a further series the test system is DU-145. Put plainly: Antiproliferative activity against human DU-145 cells assessed as cell growth inhibition. In kind it is functional.
The next series has as its system HT-29. Put plainly: Antiproliferative activity against human HT-29 cells assessed as cell growth inhibition. In kind it is functional, cell-based.
The subject of a further series is M14. Put plainly: Antiproliferative activity against human M14 cells assessed as cell growth inhibition. It counts as functional.
Series [6] can be described thus: Cytotoxicity against mouse 3T3 cells assessed as reduction in cell viability. In kind it is toxicity, cell-based. As to conditions: NIH3T3 cells.
A further series has as its system K562. Put plainly: Antiproliferative activity against human K562 cells assessed as cell growth inhibition. In kind it is functional.
The subject of series [7] is Trichophyton mentagrophytes. Put plainly: Antifungal activity against Trichophyton mentagrophytes assessed as inhibition of microbial growth. In kind it is functional.
Series [8] has as its system Candida albicans. Put plainly: Antifungal activity against Candida albicans assessed as inhibition of fungal growth by MTT assay. It counts as functional.
The target in series [9] is T1, Polyunsaturated fatty acid 5-lipoxygenase (Homo sapiens). The series is described as follows: Inhibition of ALOX5 (unknown origin) at 0.000001 M relative to control. As to conditions: dose 1 µM.
Series [10] concerns the target Calmodulin-1 (Homo sapiens) (UniProt P0DP23). Put plainly: Inhibition of calmodulin (unknown origin).
The subject of series [11] is Panel NCI-60 (60 carcinoma cell lines). Put plainly: Antiproliferative activity against human Panel NCI-60 (60 carcinoma cell lines) assessed as cell growth inhibition. In kind it is functional.
A further series concerns P388. The series is described as follows: Antiproliferative activity against mouse P388 cells assessed as cell growth inhibition. It counts as functional, cell-based.
The nature of series [12]: Inhibition of superoxide anion radical release in rabbit polymorphonuclear leucocytes. In kind it is functional, cell-based. As to conditions: Oryctolagus cuniculus, Polymorphonuclear neutrophil.
The target in series [13] is Procathepsin L (Homo sapiens) (UniProt P07711). Put plainly: Inhibition of Cathepsin L (unknown origin) at 0.00001 M relative to control. As to conditions: dose 10 µM.
Procathepsin L (Homo sapiens), sequence (P07711 114-333 limits assumed): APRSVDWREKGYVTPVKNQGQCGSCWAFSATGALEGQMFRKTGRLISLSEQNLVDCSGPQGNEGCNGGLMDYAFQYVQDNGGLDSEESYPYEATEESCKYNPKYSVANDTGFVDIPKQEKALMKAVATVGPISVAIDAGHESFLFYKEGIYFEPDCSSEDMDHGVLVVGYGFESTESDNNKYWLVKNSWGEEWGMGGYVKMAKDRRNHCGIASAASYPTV
The target of series [14] is Cathepsin B (Homo sapiens) (UniProt P07858). Put plainly: Inhibition of Cathepsin B (unknown origin) at 0.00001 M relative to control. As to conditions: dose 10 µM.
The subject of series [15] is Peritoneal macrophage cell. Put plainly: Inhibition of superoxide anion radical release in guinea pig peritoneal macrophages. It counts as functional, cell-based. As to conditions: Cavia porcellus.
A further series deals with A549. The series is described as follows: Antiproliferative activity against human A549 cells assessed as cell growth inhibition. In kind it is functional. As to conditions: read-out: ED50 (the source's name).
A further series deals with RPMI-7951. Put plainly: Antiproliferative activity against human RPMI-7951 cells assessed as cell growth inhibition. In kind it is functional. As to conditions: read-out: ED50 (the source's name).
The next series concerns HepG2. The series is described as follows: Antiproliferative activity against human HepG2 cells assessed as cell growth inhibition. In kind it is functional, cell-based.

For `Cc1cc2c(cc1O)[C@H](C)CC[C@@H]2C(C)C`, the IC50 with Phytophthora infestans was 0.9 µg/mL; in the series on Zymoseptoria tritici, 10 µg/mL; with Pyricularia oryzae it was 4.1 µg/mL; in the series with Cladosporium cucumerinum it was 11.8 µg/mL; with Botrytis cinerea, 14.2 µg/mL.
On to `Oc1cc2ccc1Oc1cccc(c1)CCc1ccc(cc1)Oc1cc(ccc1O)CC2`, for which the MIC in the series with Candida albicans [1] was 16 µg/mL; with Candida albicans [2], 0.25 µg.
`CC(C)=CCc1c(CCc2ccccc2)cc(O)c(O)c1O`: the ID50 came to 2 µg/mL (≈ 6.7 µM) in [3] and 27 µg/mL (≈ 90.5 µM) in the series filed under Homo sapiens.
For the molecule `Oc1ccc2c(c1)CCc1ccc(cc1)Oc1cc(ccc1O)CCc1ccc-2c(O)c1` [RICCARDI C], the MIC with Candida albicans [4] was 8 µg/mL. The IC50 at Cyclooxygenase came out at 53.5 µM.
On to `Cc1ccc2c(c1O)[C@@H](C(C)C)CC[C@H]2C`, for which, in the series with Pyricularia oryzae, the IC50 was determined as 1.7 µg/mL.
Consider `Oc1ccc2cc1Oc1ccc(cc1)CCc1cc(O)c(O)c(c1)Oc1cccc(c1)CC2`, for which the IC50 in the series filed under Rattus norvegicus is 0.32 µM.
On to `COc1cc([C@@]2(C)CCCC2(C)C)cc(O)c1C`, for which the IC50 in [5] amounted to 0.93 µg/mL (≈ 3.74 µM); with RAW264.7, 4.1 µM.
Take `CC(=O)O[C@H]1OC=C(CO)[C@@H]2[C@@H]3[C@H](CC[C@@]4(CO4)[C@H]12)C3(C)C`: the GI50 in the series with MCF7 was found to be 9 µM; in the series on DU-145, 4.8 µM; in the series with HT-29, 6.1 µM; in the series with M14 it was 6.4 µM; in [6] it was 3.8 µM; with K562, 8.7 µM.
Consider `Oc1ccc2cc1Oc1ccc(cc1)CCc1ccc(c(O)c1O)Oc1cccc(c1)CC2`, for which, in series [7], the MIC worked out at 0.5 µg/mL. Besides, the MID with Candida albicans [8] is 0.2 µg/mL.
Consider `COc1ccc2c(c1)CCc1ccc(cc1)Oc1cc(ccc1O)CCc1ccc-2c(O)c1`, for which the inhibition in series [9] is 4%. The molecule also came in with an ID50 in series [10] of 20 µg/mL (≈ 45.6 µM).
For the molecule `C=C1C(=O)C2=C[C@H]1C[C@H](O)C(=O)[C@]1(C)CCCC(C)(C)[C@H]1C[C@H]2O`, in [11], the GI50 turned out to be 1.5 µM.
On to `C=C1C(=O)C2=C[C@H]1CCC(=O)[C@]1(C)CCCC(C)(C)[C@H]1C[C@H]2O`, for which the GI50 in the series on P388 is 0.1 µg/mL and 300 nM; in [11] it was 1.2 µM. Further, the IC50 in the series with P388 came to 0.06 µg/mL (≈ 0.19 µM).
As for `C=CC(=C)CC[C@]1(C)[C@H]2CCC=C(C)[C@]2(C)CC[C@H]1C(=O)O`, the IC50 in [12] was 0.07 µg/mL (≈ 0.231 µM); in series [15], 25 µg/mL (≈ 82.7 µM). The inhibition in series [13] came out at 63%; in [14], 32%.
For `COc1cc(OC)c2c3c1-c1c(O)cccc1[C@@H]1Oc4ccccc4[C@@H](C[C@@H]2OC)[C@@H]31`, the EC50 in the series with A549 and in the series on RPMI-7951 was 1 µg/mL (≈ 2.4 µM) throughout.
Turning to `CC1(C)[C@H]2C[C@H](OC(=O)/C=C/c3ccc(O)cc3)[C@]1(C)C[C@H]2O`, in the series on HepG2, the IC50 was found to be 4.5 µg/mL (≈ 14.2 µM).
